Values joined by “and” are separate entries in the source; they are usually repeats but may differ in a detail not shown here. Equal entries are not always repeated. “Also recorded” adds a separate entry of the source.
Experiments:
[1] = tested on: cyclic GMP; assay: Cyclic GMP accumulation in laboratory tests
Description: It has been furthermore shown through the laboratory tests that no relationship between the amount of the measured cyclic guanine mono-phosphate (GMP) and the extent of the inhibitory effect can be observed.
In our experiments, the development of nitrate tolerance seems to be related to cyclic GMP accumulation, being greater in the case of NTG, thus confirming that SH groups consumption is the molecular mechanism responsible for this phenomenon.

[2] = tested on: rabbit aortic strips; assay: Induction of nitrate tolerance in rabbit aortic strips preincubated with nitroderivative
[3] = Long-period stability of active principle in tablets
[4] = Acute treatment by tongue absorption, pulmonary artery pressure by cardiac catheter; settings: in vivo
[5] = tested on: isolated rabbit heart; assay: Vasodilatory effect on isolated rabbit heart with vasopressin-induced spasm (coronary perfusion pressure)
Experimental: All nitroderivatives induce a tolerance phenomenon but the degree of the lack of the vasodilatory effect was lesser in the case of isosorbide 2-nitroderivative. […] Isolated rabbit hearts and aortic strips were used as experimental model to evaluate drugs acting on coronary resistance and vascular contractility.
Vasodilatory effect was evaluated on isolated rabbit heart in presence of vasopressin-induced spasm by using concentration of 10⁻⁵M of the tested compounds.

[6] = Clinical trials of tongue absorption administration on onset of anginal attack; settings: human, in vivo
[7] = Clinical trial, ergometer bicycle effort test before and after two months of chronic 2MN treatment; settings: human, in vivo

Compound | cyclic GMP accumulation / increase [1] | degree of desensitization after induction of nitrate tolerance [2] | degree of tolerance induced [2] | loss of active principle in the pharmaceutical forms (tablets) in the long period [3] | Activity commences after taking the drug [4] [min] | Activity lasts (average) [4] [min] | Commencement of activity [4] | Max decrease in pulmonary artery pressure % [4] | activity in reducing coronary perfusion pressure relative to other nitroderivatives [5] | effect on anginal attack [6] | Exercise time [7] | Max work tolerated (watt) [7] | S-T (mm) [7] | S-T Δ % [7] | anginal attacks, nitroglycerin consumption and arterial pressure [7] | tolerance after chronic treatment [7] | inhibition at 10 µM ([5]; Oryctolagus cuniculus, isolated rabbit heart, vasopressin-induced spasm, 10⁻⁵M, read-out: reduce coronary spasm (coronary perfusion pressure, CPP)) [%]
O=[N+]([O-])O[C@H]1CO[C@H]2[C@@H]1OC[C@H]2O [2MN, isosorbide 2-mononitrate] | lesser increase | significantly lower | lesser degree of tolerance | minimal | 3 to 4 | 80 | 180 s and 250 s and 230 s and 160 s and 200 s and 210 s and 204.2 s | 20% and 38% and 30% and 27% and 31% and 40% and 29% and 30.7% | more active than 5MN and ISDN | able to prevent anginal attack or to cause its rapid regression; also recorded: Analogous results | 8.6 ± 1.4 min and 8.9 ± 1.1 min | 144±36 watt and 148±36 watt | 1.5±0.7 mm and 1.8±0.9 mm | -29 (P<0.05) % and -25 (P<0.05) % | noted reduction | does not give rise to tolerance | –
O=[N+]([O-])OCC(CO[N+](=O)[O-])O[N+](=O)[O-] [NTG, nitroglycerin, reference compound] | greater | – | – | – | – | – | – | – | – | – | – | – | – | – | – | – | 80

From EP0425902A1, “Use of isosorbide 2-mononitrate in the preparation of pharmaceutical compositions for treating angina pectoris” (ISCOFAR Sas di Paolo E. Ghirardi, priority 1989, dated 1991)
